From patent publication US20260027073A1, “USE OF SMALL-MOLECULE COMPOUND HAVING NAPHTHYLAMINE STRUCTURE” (HANGZHOU PHECDAMED CO., LTD., priority 2023, published 2026) come the findings set out here.

Structures are written as SMILES.

Assay [1] deals with LPS-induced acute lung injury mice. Description: LPS-induced acute lung injury. The format is in vivo, C57BL/6J mice. The method, then:
Male mice C57BL/6J aged 6-8 weeks and weighing 18-22 g were selected for the study. After fixing the mice, 50 μl of PBS was injected into the airways of the mice under direct laryngoscopic vision to form a control group, and 5 mg/kg of LPS (E.coil) was dissolved in 50 μl of PBS and dripped to form a model group. The experiments were divided into […], each having 6 mice, namely, NS group (control group, airway drip of 50 μl PBS), LPS group (model control group, airway drip of 50 μl LPS), LPS+10 mg/kg group (airway drip of 50 μl LPS and given 10 mg/kg TJ01-013 treatment), LPS+20 mg/kg group (airway drip of 50 μl LPS and given 20 mg/kg TJ01-013 treatment), LPS+30 mg/kg group (airway drip of 50 μl LPS and given 30 mg/kg TJ01-013 treatment), LPS+Sivelestat group (Positive control group, airway drip of 50 μl LPS and given 5 mg/kg Sivelestat treatment). All groups were administered […] by intraperitoneal injection in a volume of 200 μl 1 h and 7 h after airway drip, and the mice were euthanized 24 h later, bronchoalveolar lavage fluid (BALF) was taken, and the levels of inflammatory factors in the bronchoalveolar lavage fluid were detected and the changes in the transcriptional levels of tissue-associated inflammatory factors were observed. • (2) taking and observing of Bronchoalveolar lavage fluid (BALF)
Use chloral hydrate intraperitoneal injection to make mice die of rapid overdose anesthesia, place mice in supine position on the dissection table, fix the limbs, disinfect the skin of the neck of the mice with 75% ethanol, incise the skin along the midline of the neck, bluntly separate the subcutaneous connective tissues and muscles with hemostatic forceps, expose the trachea, separate connective tissues on both sides of the trachea and between the trachea and the esophagus, and free the trachea. Two surgical sutures about 20 cm long were threaded between the trachea and esophagus. A 24G intravenous cannula needle was inserted at a 30-degree angle from the connective tissue membrane between the thyroid cartilage and the cricoid cartilage, and the intravenous cannula needle was delivered in the direction of the tracheal eminence. A surgical suture placed between the tracheo-esophageal was ligated at the entry of the cannula into the trachea and at the distal end of the cannula, respectively, and tied as tightly as possible to secure the cannula and trachea. 0.8 ml of PBS was aspirated with a 1 ml syringe, and the syringe was connected to the inlet end of the intravenous cannula needle, and PBS was slowly injected into the trachea, stayed for 30 seconds and then was withdrawn back, and a milky white frothy liquid withdrawn back was visible, and the lavage was repeated three times, and the liquid was centrifuged at 1500 rpm/min for 10 min, and the supernatant was used for cytokine assay, and the cell precipitates were coated after resuspending with PBS for Giemsa staining and sorting and counting.
The levels of inflammatory factors (inflammatory factors including IL-6, CXCL1, CXCL2, etc.) in BALF supernatant were detected according to the instructions of the ELISA test kit.
The obtained cDNA was amplified on a 96-well PCR plate using a LightCycler 480 system, and the gene level was determined by using glyceraldehyde 3-phosphate dehydrogenase (GAPDH) as an internal standard.

In assay [2] the test system is tinnitus model mice. Description: Sodium salicylate-induced tinnitus. Format: in vivo, C57BL/6 mice. The conditions noted are these: 8 kHz and 16 kHz noise; 7.5, 15, 30 mg/kg, dose-dependence; vs model group; FIG. 85. As to the method:
7-week-old C57BL/6 male mice without tinnitus were screened for tinnitus-free mice using the acoustic startle (AS) response and gap pre-pulse inhibition of the acoustic startle (GPIAS). The mice were randomly divided into five groups, normal control group (normal, n=10), model control group (Control, n=10), TJ01-013 7.5 mg/kg treatment group (7.5 mg/kg, n=10), TJ01-013 15 mg/kg treatment group (15 mg/kg, n=10), and TJ01-013 30 mg/kg treatment group (30 mg/kg, n=10). Except for the normal control group, all the other groups were injected intraperitoneally with 450 mg/kg sodium salicylate to construct the model, in which the normal control group was injected intraperitoneally with the corresponding volume of saline, and the administration treatment was started on the day of modeling, in which the normal control group and the model control group were administrated vehicle (0.5% CMC-Na) by gavage, and the TJ01-013 treatment group was given the treatment of TJ01-013 with the corresponding concentration of TJ01-013 in a volume of 10 ml/kg, and the acoustic startle was measured again 3 hours after the last dose after 4 consecutive days of administration. Behavioral test, AS response paired with GPLAS response was the behavioral experiment to detect the presence of tinnitus. […] The output of the platform is amplified, sampled, stored in a computer, and analyzed offline. […]

The mark [3] stands for this setting: TJ01-013 10, 20, 30 mg/kg, Sivelestat 5 mg/kg, FIG. 26.
Setting [4] is: concentration-dependent for TJ01-013, FIG. 27.

As to `O=C(O)C[S+]([O-])c1cc(NS(=O)(=O)c2ccc(Br)cc2)c2ccccc2c1O` (centres unmarked) [I-1], in assay [1] (FIG. 25), the “number of macrophages in alveolar lavage fluid” value is recorded as “no significant effect” and the “number of neutrophils in alveolar lavage fluid” value was “significantly reduce”. The “total number of cells in alveolar lavage fluid, compared with positive control Sivelestat sodium” value in assay [1] (TJ01-013 20 mg/kg, FIG. 25) was “decreased to a better extent”. In addition, in assay [1] (setting [3]), the “CXCL1 level in alveolar lavage fluid (ELISA)” value is “significantly decreased in a concentration-dependent manner”, the “CXCL2 level in alveolar lavage fluid (ELISA)” value is recorded as “significantly decreased in a concentration-dependent manner” and the “IL-6 level in alveolar lavage fluid (ELISA)” value is given as “significantly decreased in a concentration-dependent manner”. Also, in assay [1] (after LPS, intraperitoneal TJ01-013, FIG. 25), the “total number of cells in alveolar lavage fluid” value is reported as “decreased”. In addition, in assay [1] (setting [4]), the “CXCL1 transcript level in lung tissue” value is reported as “significantly decreased”, the “CXCL2 transcript level in lung tissue” value is reported as “significantly decreased” and the “IL-6 transcript level in lung tissue” value is listed as “significantly decreased”. Further, in assay [2], the “AS response amplitude ratios (GPIAS)” value was “decreased significantly”.
